Patent publication US20250179000A1 (Sanford Burnham Prebys Medical Discovery Institute, priority 2021, published 2025)

What was measured:
[1] = target: T1, Rat mGlu3 (Rattus norvegicus, UniProt P31422); test: mGlu receptor in vitro assay (thallium flux through GIRK channels / calcium assay), rat mGlu3; format: cell-based; settings: PAM potency with EC20 glutamate
T1 construct: expressed in transfected cells; host or cells: HEK-293 co-expressing GIRK channels
Procedure: (§1) Human Embryonic Kidney (HEK-293) cell lines co-expressing rat mGlu receptors 2, 3, 4, 6, 7 or 8 and G protein-coupled inwardly-rectifying potassium (GIRK) channels were grown in Growth Media containing 45% DMEM, 45% F-12, 10% FBS, 20 mM HEPES, 2 mM L-glutamine, antibiotic/antimycotic, non-essential amino acids, 700 μg/mL G418, and 0.6 μg/ml puromycin at 37° C. in the presence of 5% CO2. […] All cell culture reagents were purchased from Invitrogen Corp. (Carlsbad, CA) unless otherwise noted. Calcium assays were used to assess activity of compounds at mGlu1 and mGlu5, as previously described in Engers et al (J. Med. Chem. 2009, 52, 4115-4118). Calcium assays at mGlu3 were performed as described for mGlu5 with the exception that TREx293 mGlu3 Gα15 cells were treated with tetracycline at 20 ng/mL for 20 h prior to assay.
(§2) Compound activity at the group II (mGlu2 and mGlu3) and group III (mGlu4, mGlu6, mGlu7, and mGlu8) was assessed using thallium flux through GIRK channels, a method that has been described in detail. Briefly, cells were plated into 384-well, black-walled, clear-bottomed poly-D-lysine-coated plates at a density of 15,000 cells/20 μL/well in DMEM containing 10% dialyzed FBS, 20 mM HEPES, and 100 units/mL penicillin/streptomycin (assay media). Plated cells were incubated overnight at 37° C. in the presence of 5% CO2. The following day, the medium was exchanged from the cells to assay buffer [Hanks' balanced salt solution (Invitrogen) containing 20 mM HEPES, pH 7.3] using an ELX405 microplate washer (BioTek), leaving 20 μL/well, followed by the addition of 20 μL/well FluoZin2-AM (330 nM final concentration) indicator dye (Invitrogen; prepared as a stock in DMSO and mixed in a 1:1 ratio with Pluronic acid F-127) in assay buffer. Cells were incubated for 1 h at room temperature, and the dye exchanged to assay buffer using an ELX405, leaving 20 μL/well. Test compounds were diluted to 2 times their final desired concentration in assay buffer (0.3% DMSO final concentration). Agonists were diluted in thallium buffer [125 mM sodium bicarbonate (added fresh the morning of the experiment), 1 mM magnesium sulfate, 1.8 mM calcium sulfate, 5 mM glucose, 12 mM thallium sulfate, and 10 mM HEPES, pH 7.3] at 5 times the final concentration to be assayed. Cell plates and compound plates were loaded onto a kinetic imaging plate reader (FDSS 6000 or 7000; Hamamatsu Corporation, Bridgewater, NJ). Appropriate baseline readings were taken (10 images at 1 Hz; excitation, 470±20 nm; emission, 540±30 nm) and test compounds were added in a 20 μL volume and incubated for approximately 2.5 min before the addition of 10 μL of thallium buffer with or without agonist. After the addition of agonist, data were collected for approximately an additional 2.5 min. Data were analyzed using Excel (Microsoft Corp, Redmond, WA). The slope of the fluorescence increase beginning 5 s after thallium/agonist addition and ending 15 s after thallium/agonist addition was calculated, corrected to vehicle and maximal agonist control slope values, and plotted in using either XLfit (ID Business Solutions Ltd) or Prism software (GraphPad Software, San Diego, CA) to generate concentration-response curves. Potencies were calculated from fits using a four-point parameter logistic equation. For concentration-response curve experiments, compounds were serially diluted 1:3 into 10-point concentration response curves and were transferred to daughter plates using an Echo acoustic plate reformatter (Labcyte, Sunnyvale, CA). Test compounds were applied and followed by EC20 concentrations of glutamate.

[2] = target: T2, Rat mGlu2 (Rattus norvegicus, UniProt P31421); test: mGlu receptor in vitro assay, thallium flux through GIRK channels, rat mGlu2; format: cell-based; settings: PAM potency with EC20 glutamate
T2 construct: expressed in transfected cells; host or cells: HEK-293 co-expressing GIRK channels
T2 sequence (P31421 19-872): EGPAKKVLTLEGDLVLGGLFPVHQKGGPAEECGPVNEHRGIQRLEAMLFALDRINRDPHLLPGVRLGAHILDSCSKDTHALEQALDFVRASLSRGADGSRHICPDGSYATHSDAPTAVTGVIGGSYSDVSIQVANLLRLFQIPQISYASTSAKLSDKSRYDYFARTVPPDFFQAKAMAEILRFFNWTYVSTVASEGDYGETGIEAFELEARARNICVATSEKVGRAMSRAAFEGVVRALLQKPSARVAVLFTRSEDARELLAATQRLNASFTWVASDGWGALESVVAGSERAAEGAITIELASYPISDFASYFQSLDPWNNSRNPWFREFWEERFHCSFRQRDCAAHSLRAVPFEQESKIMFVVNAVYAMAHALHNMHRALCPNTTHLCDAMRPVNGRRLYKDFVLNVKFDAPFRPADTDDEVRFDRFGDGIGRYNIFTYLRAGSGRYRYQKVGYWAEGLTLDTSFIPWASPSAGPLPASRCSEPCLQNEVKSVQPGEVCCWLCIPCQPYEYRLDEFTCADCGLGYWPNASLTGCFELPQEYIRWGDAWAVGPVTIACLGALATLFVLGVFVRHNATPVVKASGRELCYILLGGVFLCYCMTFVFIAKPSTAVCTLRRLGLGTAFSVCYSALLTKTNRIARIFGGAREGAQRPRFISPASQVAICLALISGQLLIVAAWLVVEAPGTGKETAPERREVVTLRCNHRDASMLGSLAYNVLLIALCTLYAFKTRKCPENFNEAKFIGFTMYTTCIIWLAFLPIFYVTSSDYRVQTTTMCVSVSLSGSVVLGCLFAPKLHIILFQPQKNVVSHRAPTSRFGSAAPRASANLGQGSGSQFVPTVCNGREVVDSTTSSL
Procedure: as §1, §2

T1 sequence (P31422 23-879): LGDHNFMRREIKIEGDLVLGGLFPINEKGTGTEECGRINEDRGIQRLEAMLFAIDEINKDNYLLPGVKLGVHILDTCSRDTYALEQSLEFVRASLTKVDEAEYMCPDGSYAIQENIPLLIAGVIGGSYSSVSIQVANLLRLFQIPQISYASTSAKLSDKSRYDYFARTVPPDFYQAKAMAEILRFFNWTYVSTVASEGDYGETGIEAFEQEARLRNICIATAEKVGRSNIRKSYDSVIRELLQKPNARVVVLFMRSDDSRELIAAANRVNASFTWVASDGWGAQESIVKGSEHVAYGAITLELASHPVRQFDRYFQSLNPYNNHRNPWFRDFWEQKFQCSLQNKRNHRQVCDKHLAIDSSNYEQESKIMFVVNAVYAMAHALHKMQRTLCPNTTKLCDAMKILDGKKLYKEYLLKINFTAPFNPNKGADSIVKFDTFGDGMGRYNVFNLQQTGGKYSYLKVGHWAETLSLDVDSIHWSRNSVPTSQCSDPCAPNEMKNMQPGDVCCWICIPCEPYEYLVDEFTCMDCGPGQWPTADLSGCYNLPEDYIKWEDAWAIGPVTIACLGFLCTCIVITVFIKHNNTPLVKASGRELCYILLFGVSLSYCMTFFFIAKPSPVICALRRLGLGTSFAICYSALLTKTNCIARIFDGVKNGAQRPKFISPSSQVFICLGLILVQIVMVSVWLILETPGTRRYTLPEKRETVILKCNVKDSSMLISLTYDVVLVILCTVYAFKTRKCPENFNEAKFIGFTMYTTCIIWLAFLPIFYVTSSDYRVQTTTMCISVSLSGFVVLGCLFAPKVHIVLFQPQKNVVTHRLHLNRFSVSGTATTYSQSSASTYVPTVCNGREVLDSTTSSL

Row | SMILES | EC50 [1] [nM] | EC50 [2] [nM]
1 | COc1ccc(C(=O)O)cc1OCCCOc1ccc(C(=O)CC(C)(C)C)c(O)c1C [compound 92, 3-{3-[4-(3,3-Dimethylbutanoyl)-3-hydroxy-2-methylphenoxy]propoxy}-4-methoxybenzoic acid] | 234 | 57
2 | COc1ccc(C(=O)O)cc1OCCOc1ccc(C(=O)CC(C)(C)C)c(O)c1C [compound 93, 3-{2-[4-(3,3-Dimethylbutanoyl)-3-hydroxy-2-methylphenoxy]ethoxy}-4-methoxybenzoic acid] | 1220 | 207
3 | CCCC(=O)c1ccc(OCOc2cccc(C(=O)O)c2C)c(C)c1O [compound 95, 3-[(4-Butanoyl-3-hydroxy-2-methylphenoxy)methoxy]-2-methylbenzoic acid] | > 30000 | 663
4 | COc1ccc(C(=O)O)cc1OCCCCOc1ccc(C(O)CC(C)(C)C)c(O)c1C (centres unmarked) [compound 96, 3-{4-[3-Hydroxy-4-(1-hydroxy-3,3-dimethylbutyl)-2-methylphenoxy]butoxy}-4-methoxybenzoic acid] | > 10000 | 1640
5 | COc1ccc(C(=O)O)cc1OCCCCOc1ccc(C(=O)C(C)(C)C)c(O)c1C [compound 105, 3-(4-(3-Hydroxy-2-methyl-4-pivaloylphenoxy)butoxy)-4-methoxybenzoic acid] | 743 | 288
6 | Cc1c(OCc2cnc(-c3ccc(C(=O)O)c(Cl)c3)cn2)ccc(C(=O)CC(C)(C)C)c1O [compound 106, 4-(5-{[4-(3,3-Dimethylbutanoyl)-3-hydroxy-2-methylphenoxy]methyl}pyrazin-2-yl)-2-chlorobenzoic acid] | 523 | 535
7 | CCCC(=O)c1ccc(OCc2cnc(-c3ccc(C(=O)O)c(Cl)c3)cn2)c(C)c1O [compound 107, 4-{5-[(4-Butanoyl-3-hydroxy-2-methylphenoxy)methyl]pyrazin-2-yl}-2-chlorobenzoic acid] | 2140 | 254
8 | Cc1c(OCc2cnc(-c3cccc(C(=O)O)c3)cn2)ccc(C(=O)C(C)(C)C)c1O [compound 110, 3-(5-((3-Hydroxy-2-methyl-4-pivaloylphenoxy)methyl)pyrazin-2-yl)benzoic acid] | 327 | 1040
9 | CCCC(=O)c1ccc(OCCCCCOc2ccc(C(=O)CCC)c(O)c2C)c(C)c1O [compound 111, 1-{4-[5-(4-Butanoyl-3-hydroxy-2-methylphenoxy)pentyloxy]-2-hydroxy-3-methylphenyl}butan-1-one] | > 30000 | > 10000
10 | Cc1c(OCc2cnc(-c3cccc(C(=O)NC4CC4)c3)cn2)ccc(C(=O)CC(C)(C)C)c1O [compound 113, N-Cyclopropyl-3-(5-((4-(3,3-dimethylbutanoyl)-3-hydroxy-2-methylphenoxy)methyl)pyrazin-2-yl)benzamide] | 333 | 1270
11 | COc1ccc(C(=O)O)cc1OCCCCOc1ccc(C(=O)Cc2ccccc2)c(O)c1C [compound 120, 3-(4-(3-Hydroxy-2-methyl-4-(2-phenylacetyl)phenoxy)butoxy)-4-methoxybenzoic acid] | 642 | 220

Further lines, results first:

Row | EC50 [1] [nM] | EC50 [2] [nM] | SMILES
12 | 4670 | 2380 | Cc1c(OCc2cnc(-c3cccc(NC(=O)NS(C)(=O)=O)c3)cn2)ccc(C(=O)CC(C)(C)C)c1O [compound 89, N-((3-(5-((4-(3,3-Dimethylbutanoyl)-3-hydroxy-2-methylphenoxy)methyl)pyrazin-2-yl)phenyl)carbamoyl)methanesulfonamide]
13 | 923 | 322 | COc1ccc(C(=O)O)cc1OCc1cccc(COc2ccc(C(=O)CC(C)(C)C)c(O)c2C)c1 [compound 90, 3-((3-((4-(3,3-Dimethylbutanoyl)-3-hydroxy-2-methylphenoxy)methyl)benzyl)oxy)-4-methoxybenzoic acid]
14 | > 10000 | 1380 | Cc1c(Oc2cccc(C(=O)O)c2)ccc(C(=O)CC(C)(C)C)c1O [compound 97, 3-[4-(3,3-Dimethylbutanoyl)-3-hydroxy-2-methylphenoxy]benzoic acid]
15 | > 30000 | > 10000 | Cc1c(OCCCCCOc2cccc(C(=O)O)c2C)cccc1C(=O)O [compound 98, 3-[5-(3-Carboxy-2-methylphenoxy)pentyloxy]-2-methylbenzoic acid]
16 | > 30000 | 167 | CCCC(=O)c1ccc(OCC(=O)c2cccc(-c3cccc(C(=O)O)c3C)c2)c(C)c1O [compound 99, 3-{3-[2-(4-Butanoyl-3-hydroxy-2-methylphenoxy)acetyl]phenyl}-2-methylbenzoic acid]
17 | > 30000 | 110 | CCCC(=O)c1ccc(OCCCCCOc2cnc(C)c(C(=O)O)c2)c(C)c1O [compound 108, 5-[5-(4-Butanoyl-3-hydroxy-2-methylphenoxy)pentyloxy]-2-methylpyridine-3-carboxylic acid]
18 | 281 | 217 | Cc1c(OCc2cncc(-c3cccc(C(=O)O)c3)n2)ccc(C(=O)CC(C)(C)C)c1O [compound 112, 3-(6-((4-(3,3-Dimethylbutanoyl)-3-hydroxy-2-methylphenoxy)methyl)pyrazin-2-yl)benzoic acid]
19 | 258 | 391 | Cc1c(OCc2ccnc(-c3cccc(C(=O)O)c3)n2)ccc(C(=O)CC(C)(C)C)c1O [compound 114, 3-(4-((4-(3,3-Dimethylbutanoyl)-3-hydroxy-2-methylphenoxy)methyl)pyrimidin-2-yl)benzoic acid]
20 | > 30000 | > 30000 | Cc1c(OCc2cnc(-c3cccc(S(N)(=O)=O)c3)cn2)ccc(C(=O)CC(C)(C)C)c1O [compound 117, 3-(5-((4-(3,3-Dimethylbutanoyl)-3-hydroxy-2-methylphenoxy)methyl)pyrazin-2-yl)benzenesulfonamide]
21 | 1020 | 482 | CCCC(=O)c1ccc(OCc2cnc(-c3cccc(C(=O)O)c3)cn2)c(C)c1O [compound 118, 3-(5-((4-Butyryl-3-hydroxy-2-methylphenoxy)methyl)pyrazin-2-yl)benzoic acid]
22 | 616 | 916 | Cc1c(OCc2ccc(-c3cccc(C(=O)O)c3)nn2)ccc(C(=O)CC(C)(C)C)c1O [compound 119, 3-(6-((4-(3,3-Dimethylbutanoyl)-3-hydroxy-2-methylphenoxy)methyl)pyridazin-3-yl)benzoic acid]
23 | 593 | 782 | Cc1c(OCc2cnc(-c3cccc(C(=O)O)c3)cn2)ccc(C(=O)Cc2ccccc2)c1O [compound 121, 3-(5-((3-Hydroxy-2-methyl-4-(2-phenylacetyl)phenoxy)methyl)pyrazin-2-yl)benzoic acid]
24 | 282 | 539 | Cc1c(OCc2cnc(-c3cccc(-c4nn[nH]n4)c3)cn2)ccc(C(=O)CC(C)(C)C)c1O [compound 122, 1-(4-((5-(3-(2H-Tetrazol-5-yl)phenyl)pyrazin-2-yl)methoxy)-2-hydroxy-3-methylphenyl)-3,3-dimethylbutan-1-one]
25 | 2640 | 2520 | Cc1c(OCc2cnc(-c3cccc(-c4noc(=S)[nH]4)c3)cn2)ccc(C(=O)CC(C)(C)C)c1O [compound 123, 1-(2-Hydroxy-3-methyl-4-((5-(3-(5-thioxo-4,5-dihydro-1,2,4-oxadiazol-3-yl)phenyl)pyrazin-2-yl)methoxy)phenyl)-3,3-dimethylbutan-1-one]
